{
  "source": "patent US20020032187A1",
  "about": "“Method for stimulating bone formation” (SmithKline Beecham Corporation, priority 1996, published 2002)",
  "key": {"ROS 17/2.8 osteoblasts": {"tested_on": "ROS 17/2.8 osteoblasts", "settings": "for increase over the basal level of osteocalcin: 48 hr incubation, Vitamin D3 at 10 nM, internal controls", "procedure": "Cell culture: ROS 17/2.8 osteoblasts were routinely cultured in Ham's F-12 medium containing 5% FBS, 25 rmM HEPES (pH 7.4), 1.1 mM CaCl2, penicillin (10 U/ml) and streptomycin (10 ug/ml). The cells were subcultured twice a week using 0.04% trypsin containing 5 mM EDTA to detach the cells.\nFor the assay, 30,000 cells were plated per well in 24-well multidishes in 0.5 ml of HAM's F-12 medium containing 1% FBS and allowed to adhere for 3-4 hr at 37° C. in a humidified incubator with 5% CO2. Increasing concentrations of test compounds ([…]) were then added to the wells (duplicate cultures per concentration tested) and the incubation continued for an additional 48 hr. At the end of the incubation, cultures supernatants were removed and assayed for osteocalcin levels using a rat RIA as per the manufacturer's instructions. The lower limit of detection in this assay was 0.3 ng/ml. In every experiment, Vitamin D3 (10 nM) and the peptide cyclo[Arg-Gly-Asp-D-Phe-Val] were tested as an internal controls. […] Activity for each compound was expressed as the EC50 from the dose-response curve."}, "MC3T3-E1 osteoblasts": {"tested_on": "MC3T3-E1 osteoblasts", "assay": "Mineralization of MC3T3 osteoblasts", "type": "cell-based, murine", "settings": "25 uM", "procedure": "Mineralization of MC3T3 osteoblasts\nTo characterize the temporal sequence of osteoblast differentiation, 30,000 cells were plated/well in 24-well multidishes and grown for periods ranging from 3-26 days in a-MEM medium (GIBCO) containing 10% fetal bovine serum (V/V), penicillin (100 U/ml) and streptomycin (100 ug/ml), with or without supplementation with 5 mM β-glycerophosphate and 100 uM ascorbic acid in the presence or absence of RGD compounds.\nMineralization of cells was assessed by calcium isotope accumulation. Cells were incubated for 48 h in medium containing 0.5 uCi/mi of ^45CaCl2 at various time points after seeding. Subsequently, the monolayers were washed twice with PBS using 1 ml/wash. Cells were harvested and digested in 0.1 N NaOH and aliquots were counted by liquid scintillation counting using a Beckman 5500 scintillation counter.\nCalcified nodules in actively mineralizing cultures were visualized by staining cell monolayers with Alizarin-Red-S (Sigma Chemical Co, St Louis, Mo.). Cell cultures were washed twice with PBS, fixed for 10 min in 50 percent ethanol, rehydrated with 1 ml of distilled water for 5 min and then stained for 1-3 min with 200 uL of 1 percent Alizarin Red S (aqueous). The monolayers were then washed extensively and very carefully using 1 ml H2O per wash. Calcified nodules which appeared a bright red color were identified by light microscopy.\nTo monitor the differentiation of cells to the mature osteoblast type, alkaline phosphatase activity was determined in cell lysates using the colorimetric assay. Cells were washed twice with PBS using 1 ml/wash. Subsequently, the monolayers were transferred to ice and cells lysed in 0.2 ml of 0.1% TX-100. […] The reactions were stopped with the addition of 100 uL of ice cold 0.25 N NaOH to each reaction and absorbance was read at 410 nm. […] Alkaline phosphatase activity was calculated as umol of substrate (p-nitrophenol) released/mg protein/min.\nOsteocalcin levels in the supernatants were determined at various time points during the assay using a mouse RIA as per the manufacturers instructions. […]"}},
  "note": "Where two headings read alike, the source gives them in different places. No end group written: not given here.",
  "data": [
    {"molecule": "CN1Cc2cc(C(=O)NCc3nc4ccccc4[nH]3)ccc2NC(CC(=O)O)C1=O", "note": "(racemic) [7-[(((2-benzimidazolyl)methyl)amino)carbonyl]-2,3,4,5-tetrahydro4-methyl-3-oxo-1H-1,4-benzodiazepine-2-acetic acid]", "values": [
      {"measurement": "stimulates release of osteocalcin (in words)", "setting": "ROS 17/2.8 osteoblasts", "value": "osteocalcin-releasing"}
    ]},
    {"molecule": "C=C1CC[C@H](O)C/C1=C/C=C1\\CCC[C@]2(C)[C@@H]([C@H](C)CCCC(C)C)CC[C@@H]12", "note": "[Vitamin D3]", "values": [
      {"measurement": "increase over the basal level of osteocalcin", "setting": "ROS 17/2.8 osteoblasts", "value": "two to three fold increase"}
    ]},
    {"molecule": "CC(C)[C@@H]1NC(=O)[C@@H](Cc2ccccc2)NC(=O)[C@H](CC(=O)O)NC(=O)CNC(=O)[C@H](CCCNC(=N)N)NC1=O", "note": "[cyclo[Arg-Gly-Asp-D-Phe-Val]]", "values": [
      {"measurement": "45Ca uptake", "setting": "MC3T3-E1 osteoblasts", "value": "increased calcium uptake"},
      {"measurement": "alkaline phosphatase activity", "setting": "MC3T3-E1 osteoblasts", "value": "enhanced alkaline phosphatase activity"},
      {"measurement": "calcification nodules upon Alizarin-Red staining", "setting": "MC3T3-E1 osteoblasts", "value": "showed calcification nodules upon Alzirin staining"},
      {"measurement": "stimulates release of osteocalcin (in words)", "setting": "ROS 17/2.8 osteoblasts", "value": "stimulate the release of osteocalcin"},
      {"measurement": "EC50", "setting": "ROS 17/2.8 osteoblasts; 48 h", "value": 740, "unit": "nM"},
      {"measurement": "increase over the basal level of osteocalcin", "setting": "ROS 17/2.8 osteoblasts", "value": "two to three fold increase"},
      {"measurement": "stimulates release of osteocalcin (in words)", "setting": "ROS 17/2.8 osteoblasts; listed as cyclo(Arg-Gly-Asp-D-Phe-Val)", "value": "osteocalcin-releasing"}
    ]},
    {"molecule": "Benzyl-(N-methyl)Arg-Gly-Asp-NH-(2 or 4 chloro)Ph", "values": [
      {"measurement": "stimulates release of osteocalcin (in words)", "setting": "ROS 17/2.8 osteoblasts", "value": "stimulate the release of osteocalcin"}
    ]},
    {"molecule": "Benzyl-(N-methyl)Arg-Gly-Asp-NHPh", "values": [
      {"measurement": "stimulates release of osteocalcin (in words)", "setting": "ROS 17/2.8 osteoblasts", "value": "stimulate the release of osteocalcin"}
    ]},
    {"molecule": "Gly-Arc-Gly-Asp-Ser-OH (GRGDS-OH)", "values": [
      {"measurement": "stimulates release of osteocalcin (in words)", "setting": "ROS 17/2.8 osteoblasts", "value": "stimulate the release of osteocalcin"}
    ]}
  ]
}
